# Patent US10485814B2, “Nicotinamide riboside analogs and pharmaceutical compositions and uses thereof” (GlaxoSmithKline Intellectual Property (No. 2) Limited, priority 2014, dated 2019)
# “Also recorded” adds a separate entry of the source.
# What was measured:
# HaCaT cells = assay: H2O2-induced reactive oxygen species (ROS) in HaCaT cells (CellROX deep red); assay type: cell-based, human; conditions: 3 hr pre-incubation then 250 μM H2O2, Hydroxyterosol 0.005%, niacinamide 4.5 mM, NRH several concentrations
# Experimental: HaCaT cells were grown as described in example 23 and were seeded in 96-well plates (Nunc™ black with optical bottom, Thermo Fisher Scientific, Inc., Waltham, Mass.) with a density at 2×10^4 cells per well and 100 μl medium in each well, and grown overnight before treatments. Stock solutions of NRH and other test compounds were prepared and diluted to 2× of final treatment concentrations in DMEM medium in 96-well storage plate as indicated in the FIG. 11. HaCaT Cells were treated in triplicates by adding 100 μl of diluted solutions of test compounds (2×) to each well containing 100 μl medium already. Cells were incubated in the presence of test compounds for 3 hrs. At the end of 3 hr incubation, cells were washed once with 200 μl DPBS with Ca^++ and Mg^++ (Life Technologies) and then fed with 100 μl DMEM medium each well containing H2O2 at 250 μM (as a ROS (reactive oxygen species) inducer, Sigma). After 30 min incubation, cells were washed once with 200 μl DPBS with Ca^++ and Mg^++ and CellROX deep red reagent (2.5 mM stock solution, Life Technologies) was added to the medium to a final concentration of 5 μM. After 1 hr incubation at 37° C., 5% CO2, Cells were washed for 3 times with DPBS, fluorescence signal was read at Ex. 640 nm and Em. 665 nm in Biotek Synergy H4 microplate reader (BioTek, Winooski, Vt.). Untreated cells were served as controls (normalized to 1). All the treated samples were normalized to the untreated control.
# Human dermal fibroblasts = assay: UVA-induced gene expression in dermal fibroblasts (QPCR); assay type: cell-based; conditions: NRH 200 μM for 5 days, UVA 5 or 7.5 J/cm^2
# Experimental: Human dermal fibroblasts were grown in regular culture media as described in example 1 and seeded in 12-well plates at 2×10^5 cells per well for overnight. Before UVA exposure, culture media were removed and PBS (500 μl) was added to each well. Cells were treated with NRH at 200 μM in culture media for 5 days, and only exposed to UVA at 5 J/cm^2 or 7.5 J/cm^2 every other day on day 0 and day 3. The Newport DS-101103 UV Solar Simulator with UV-A-F filter (Sol-UV-A-F) (Newport Corporate) was used as the UVA emitter. Measurement of the irradiation was taken using an ILT-1400-A radiometer/photometer with a UVA probe (SSL001A, international light technologies, Inc.). After UVA exposure, PBS was removed from each well and media with NRH were added to cells. Cells were harvested for RNA isolation after 5 days treatment.
# [1] = Storage in a 93% RH salt chamber; assay type: physicochemical; conditions: approximately 22° C., approximately 2¼ hours
# Experimental: XRD indicated the sample was amorphous (FIG. 16). A sample of NRH was stored in a 93% RH (relative humidity) salt chamber (at approximately 22° C.) for approximately 2¼ hours. The sample had deliquesced and there was no evidence of crystallization based on XRD analysis.
smiles,measurement,setting,value
"NC(=O)C1=CN([C@@H]2O[C@H](CO)[C@@H](O)[C@H]2O)C=CC1 [NRH, dihydronicotinamide riboside]",H2O2-induced ROS,HaCaT cells,dose-dependent inhibitory activities
same,COX-2 expression compared to UVA alone,Human dermal fibroblasts,reduced; also recorded: decreases
same,NQO-1 expression compared to UVA alone,Human dermal fibroblasts,increases
same,NRF-2 expression compared to UVA alone,Human dermal fibroblasts,increases
same,behaviour on storage at high humidity,[1],deliquesced
